The record followed here is US5935983A, “Use of phenylcyclohexylcarboxamides” (Bayer Aktiengesellschaft, priority 1995, dated 1999).

The subject of this experiment is smooth muscle cells obtained from the aortas of pigs. Description: inhibition of the proliferation of smooth muscle cells (3H-thymidine incorporation). The experiment is classed as cell-based, pig. As to conditions: Sus scrofa; porcine aortic smooth muscle cells; half-maximal inhibition of the thymidine incorporation produced by 10% FCS; 3H-thymidine added after 16-20 h, further 4 h. The method, then: Investigation of the inhibition of the proliferation of smooth muscle cells by the compounds according to the invention
To determine the antiproliferative action of the compounds, smooth muscle cells are used which are obtained from the aortas of pigs by the media explant technique [R. Ross, J. Cell. Biol. 50, 172, 1971]. The cells are inoculated into suitable culture dishes, as a rule 96-hole plates, and cultured at 37° C. in 5% CO2 for 2-3 days in medium 199 containing 7.5% FCS and 7.5% NCS, 2 mM L-glutamine and 15 mM HEPES, pH 7.4. The cells are then synchronized by serum withdrawal for 2-3 days and then stimulated to growth using serum or other factors. Test compounds are added simultaneously. After 16-20 hours, ^3 H-thymidine is added and after a further 4 hours the incorporation of this substance into the TCA-precipitable DNA of the cells is determined. To determine the IC50 values, the active compound concentration is calculated which, on sequential dilution of the active compound, causes half-maximal inhibition of the thymidine incorporation produced by 10% FCS.
(Uptake of a labelled nucleoside into DNA is a usual measure of proliferation.)

Broadly, the IC50 is the concentration that gives 50% inhibition. Low readings indicate greater potency, high ones weaker potency.

As for `NC(=O)C(NC(=O)C1CCCCC1c1ccc(Cn2c(C3CC3)nc3ccccc32)cc1)c1ccccc1` (stereo not shown) [Example 16], it took 0.28 nM to reach half-maximal inhibition (IC50).
